Patent US5760048A, “Alpha-mercaptoacrylic acid derivatives having calpain inhibitory activity” (Warner-Lambert Company, priority 1996, dated 1998)
Where two headings read alike, the source gives them in different places.

What was measured:
calpain I = target: T1, calpain I (Homo sapiens, UniProt P07384); test: Assay of Calpain Activity (casein substrate, microplate, Coomassie blue); type: biochemical; parameters: Calpain I was purified from human erythrocytes; from tissue; host or cells: human erythrocytes
T1 sequence (P07384 1-714): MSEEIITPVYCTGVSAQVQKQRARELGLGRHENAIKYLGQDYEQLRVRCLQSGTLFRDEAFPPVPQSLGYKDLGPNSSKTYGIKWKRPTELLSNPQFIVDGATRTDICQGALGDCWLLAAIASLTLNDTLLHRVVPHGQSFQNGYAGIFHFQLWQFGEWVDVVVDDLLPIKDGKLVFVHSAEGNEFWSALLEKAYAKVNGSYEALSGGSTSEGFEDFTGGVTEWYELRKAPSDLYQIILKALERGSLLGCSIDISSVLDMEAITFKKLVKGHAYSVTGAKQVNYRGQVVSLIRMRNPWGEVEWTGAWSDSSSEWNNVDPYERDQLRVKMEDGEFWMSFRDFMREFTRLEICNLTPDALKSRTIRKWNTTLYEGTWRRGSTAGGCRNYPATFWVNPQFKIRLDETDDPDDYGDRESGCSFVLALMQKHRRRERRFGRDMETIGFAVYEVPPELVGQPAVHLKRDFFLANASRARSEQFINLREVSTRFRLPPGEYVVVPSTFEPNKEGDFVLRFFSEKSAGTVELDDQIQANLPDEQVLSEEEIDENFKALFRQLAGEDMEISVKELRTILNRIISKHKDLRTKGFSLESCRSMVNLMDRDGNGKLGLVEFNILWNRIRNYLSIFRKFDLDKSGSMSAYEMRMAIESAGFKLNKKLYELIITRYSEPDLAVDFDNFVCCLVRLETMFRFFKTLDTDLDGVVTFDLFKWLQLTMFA
T1 sequence (P04632 1-268 partner): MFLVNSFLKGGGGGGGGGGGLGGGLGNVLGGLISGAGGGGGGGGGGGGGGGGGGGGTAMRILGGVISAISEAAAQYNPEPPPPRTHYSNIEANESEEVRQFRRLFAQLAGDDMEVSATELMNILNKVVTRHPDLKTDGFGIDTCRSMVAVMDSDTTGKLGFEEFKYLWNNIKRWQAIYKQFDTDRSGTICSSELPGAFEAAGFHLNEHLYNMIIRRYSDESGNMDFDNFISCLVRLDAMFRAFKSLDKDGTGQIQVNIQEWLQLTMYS
Method: In 250 μL of reaction mixture, substrate casein (0.5 mg/mL) was incubated with 0.01 unit (80-120 ng) calpain I, 20 mM dithiothreitol (DTT), 50 mM Tris-HCl (pH 7.4 at 25° C.), and 4 mM CaCl2 at 25° C. for 60 minutes. Two 100-μL aliquots were taken for Coomassie blue binding analysis to quantify the remaining casein.
Calpain I was assayed as described (α-mercaptoacrylic acid). […] Inhibition of these proteases are presented as IC50.

thermolysin = target: T2, thermolysin (Bacillus thermoproteolyticus, UniProt P00800); test: Selectivity: thermolysin protease assay (casein substrate); type: biochemical
T2 construct: purchased Sigma P1512; host or cells: Bacillus thermoproteolyticus
Method: (§1) Calpain I was assayed as described (α-mercaptoacrylic acid). Ten to 20 ng papain (papaya latex, Sigma, P3125), 1.25 μg trypsin (bovine pancreas, Sigma, T8003), and 5 μg thermolysin (Bacillus thermoproteolyticus, Sigma, P1512) were assayed using 0.5 mg/mL casein as substrate in the microplate format (250 μL reaction volume), essentially as described by Buroker-Kilgore M., Wang K. K. W., Anal Biochem 1993;208:387-392. Inhibition of these proteases are presented as IC50.

papain = target: T3, papain (Carica papaya, UniProt P00784); test: Selectivity: papain protease assay (casein substrate); type: biochemical; details: Table II; read-out: Inhibitory Activity of Thiol-Acrylates, Papain (IC50)
T3 construct: purchased Sigma P3125; host or cells: papaya latex
T3 sequence (P00784 134-345): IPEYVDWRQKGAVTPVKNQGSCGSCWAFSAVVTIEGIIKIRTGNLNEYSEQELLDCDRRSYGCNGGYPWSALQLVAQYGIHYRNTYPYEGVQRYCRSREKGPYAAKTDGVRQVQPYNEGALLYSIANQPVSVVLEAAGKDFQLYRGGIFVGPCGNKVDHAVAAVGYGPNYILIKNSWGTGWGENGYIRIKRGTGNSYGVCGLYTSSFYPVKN
Method: as §1

trypsin = target: T4, trypsin (Bos taurus, UniProt P00760); test: Selectivity: trypsin protease assay (casein substrate); type: biochemical, bovine; details: Table II; read-out: Inhibitory Activity of Thiol-Acrylates, Trypsin (IC50)
T4 construct: purchased Sigma T8003; host or cells: bovine pancreas
T4 sequence (P00760 24-246): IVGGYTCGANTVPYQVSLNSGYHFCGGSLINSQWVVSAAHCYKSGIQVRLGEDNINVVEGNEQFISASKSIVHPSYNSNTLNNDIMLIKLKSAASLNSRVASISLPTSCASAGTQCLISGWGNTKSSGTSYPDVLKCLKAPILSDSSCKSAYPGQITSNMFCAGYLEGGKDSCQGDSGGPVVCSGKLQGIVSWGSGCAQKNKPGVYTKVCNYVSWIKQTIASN
Method: as §1

[1] = tested on: Fetal rat cortical cell cultures; test: Assay of Lactate Dehydrogenase (LDH): NMDA-induced LDH release; type: cell-based; details: FIG. II; for block of NMDA-induced LDH release (in words): 500 μM NMDA, 200 μM calpain inhibiting compound
Method: Seventeen-day-old cultures were pretreated with 200 μM calpain inhibiting compound (when added) for 1 hour before treatment of 500 μM N-methyl-D-aspartate (NMDA) for 30 minutes (in the absence or the presence of the compound).

[2] = tested on: spectrin breakdown in rat cortical cell cultures; test: Spectrin Breakdown Measurement (immunoblot); type: cell-based; details: NMDA-treated cortical cells, 4-hour post-NMDA
Method: Rat cortical cell cultures were treated with NMDA in the absence or presence of calpain inhibiting compounds as described in "Assay of LDH" above. At the end of the 4-hour post-NMDA incubation, cells were lysed with 300 μL buffer containing 20 mM Tris-HCL (pH 7.4 at 4° C.), 1% SDS, 5 mM EGTA, 5 mM EDTA, 1 mM DTT, and various protease inhibitors. Total cellular protein was precipitated by 100 μL of 100% trichloroacetic acid. The samples were centrifuged and the pelleted protein solubilized with 50 μl of 3M Tris base. […] The blots were then probed with rabbit antibrain spectrin antibody (primary antibody) followed by alkaline phosphatase-conjugated goat antirabbit immunoglobulin G antibody (secondary antibody). […] The SBP were quantified by densitometry (BioRad Model 620).

[3] = Table I, 4 mM CaCl2, pH 7.4, 25° C., 60 minutes, read-out: Inhibitory Activity Against Human Calpain I IC50
[4] = Table II (selectivity), read-out: Inhibitory Activity of Thiol-Acrylates, Calpain (IC50)

T2 sequence (P00800 233-548): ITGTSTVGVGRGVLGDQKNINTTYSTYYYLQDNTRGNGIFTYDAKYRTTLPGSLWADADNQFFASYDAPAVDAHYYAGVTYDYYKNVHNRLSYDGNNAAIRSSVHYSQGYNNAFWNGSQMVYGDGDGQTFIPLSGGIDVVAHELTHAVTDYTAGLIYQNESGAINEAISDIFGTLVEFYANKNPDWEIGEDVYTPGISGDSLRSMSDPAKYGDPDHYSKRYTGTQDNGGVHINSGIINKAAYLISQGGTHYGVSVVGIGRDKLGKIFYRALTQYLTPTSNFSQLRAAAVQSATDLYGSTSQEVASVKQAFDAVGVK

SMILES	IC50 (calpain I; [3])	also measured
O=C(O)/C(S)=C/c1c[nH]c2ccc(F)cc12 [Example 4, 3-(5-fluoro-3-indolyl)-2-mercapto-2-propenoic Acid]	0.45 µM	
O=C(O)/C(S)=C/c1ccc(I)cc1 [Example 8, (Z)-2-propenoic Acid, 3-(4-iodophenyl)-2-mercapto]		IC50 (calpain I): 0.36 µM; IC50 (thermolysin): 204 µM; IC50 (papain): > 500 µM; IC50 (trypsin): > 500 µM
O=C(O)/C(S)=C/c1ccc(F)cc1 [Example 10, 2-Propenoic Acid, 3-(4-fluorophenyl)-2-mercapto]	1.2 µM	
CCn1c2ccccc2c2cc(/C=C(\S)C(=O)O)ccc21 [Example 12]	1.1 µM	
COc1ccc(/C(C)=C(\S)C(=O)O)cc1 [Example 14, (Z)-2-Butanoic Acid, 2-mercapto-3-(4-methoxyphenyl)]		inhibition at 200 µM (calpain I; at 200 μM, Table I, read-out: Inhibitory Activity Against Human Calpain I, % inhibition): 66%
O=C(O)/C(S)=C/c1ccc(-c2ccccc2)cc1 [Example 16, (Z)-2-Propenoic Acid, 3-[1,1'-biphenyl)-4-yl-2-mercapto]	3 µM	
O=C(O)/C(S)=C/c1ccc(OCc2ccccc2)cc1 [Example 18, (Z)-2-Propenoic Acid, 2-mercapto-3-[4-(phenylmethoxy)phenyl]]	1.8 µM	block of NMDA-induced LDH release (in words) [1]: partially blocked
O=C(O)/C(S)=C/c1cccc2ccccc12 [Example 20, (Z)-2-Propenoic Acid, 2-mercapto-3-(1-naphthalenyl)]	3.6 µM	
O=C(O)/C(S)=C/c1c[nH]c2ccccc12 [Example 22, (Z)-2-Propenoic Acid, 3-(1H-indol-3-yl)-2-mercapto]	1.3 µM	IC50 (calpain I; [4]): 1.3 µM; IC50 (thermolysin): 248 µM; IC50 (papain): > 200 µM; IC50 (trypsin): > 200 µM; spectrin breakdown product (SBP) formation, 150 kDa and 145 kDa (in words) [2]: partially blocked SBP formation
O=C(O)/C(S)=C/c1cc2ccccc2[nH]1 [Example 25, 3-(2-indolyl)-2-mercapto-2-propenoic Acid]	1.7 µM	
O=C(O)/C(S)=C/c1cc2ccccc2c2ccccc12 [Example 27, 3-(9--phenanthyl)-2-mercapto-2-propenoic Acid]	3.1 µM	
O=C(O)/C(S)=C/c1cccs1 [Example 29]	4 µM	
O=C(O)/C(S)=C/c1cc2ccccc2o1 [Example 31, (Z)-2-Propenoic Acid, 3-(2-benzofuranyl)-2-mercapto]	3.2 µM	
COc1ccc2cc(/C=C(\S)C(=O)O)ccc2c1 [Example 34, (Z)-2-Propenoic Acid, 2-mercapto-3-(6-methoxy-2-naphthalenyl)]	2.1 µM	
O=C(O)/C(S)=C/c1ccc2c(c1)OCO2 [Example 36, (Z)-2-propenoic acid, 3-(5-benzodioxoyl)-2-mercapto]	1.2 µM	
Cc1cc(/C=C(\S)C(=O)O)c(C)n1-c1ccccc1 [Example 38, (Z)-2-Propenoic Acid, 3-(2,5-dimethyl-1-phenyl-1H-pyrrol-3-yl)-2-mercapto]	13.6 µM	
CC(C)(C)c1ccc(/C=C(\S)C(=O)O)cc1 [Example 40, (Z)-2-propenoic Acid, 3-[4-(1,1-dimethylethyl)phenyl]-2-mercapto]	7.8 µM	
O=C(O)/C(S)=C/c1c(-c2ccc(Cl)cc2)[nH]c2ccccc12 [Example 42, (Z)-2-propenoic acid, 3-[2-(4-chlorophenyl)-1H-indol-3-yl]-2-mercapto]	6 µM	
O=C(O)/C(S)=C/c1ccc2c(c1)CCCC2 [Example 44, (Z)-2-propenoic acid, 2-mercapto-3-(5,6,7,8-tetrahydro-2-naphthalenyl)]	1.7 µM	
O=C(O)/C(S)=C/c1ccc(CCc2ccccc2)cc1 [Example 47, (Z)-2-Propenoic Acid, 2-mercapto-3-[4-(2-phenylethyl)-phenyl]]	2.7 µM	
O=C(O)/C(S)=C/c1ccsc1 [Example 49, (Z)-2-Propenoic Acid, 3-(3-thienyl)-2-mercapto]	7.5 µM	
O=C(O)/C(S)=C/c1ccccc1 [Example 51, 2-Propenoic Acid, 2-mercapto-3-phenyl]	5.9 µM	IC50 (calpain I; [4]): 5.9 µM; IC50 (thermolysin): 367 µM; IC50 (papain): > 200 µM; IC50 (trypsin): > 200 µM
O=C(O)/C(S)=C/c1ccc2c(c1)Cc1ccccc1-2 [Example 53, 2-Propenoic Acid, 3-(9H-fluoren-2-yl)-2-mercapto]	1.6 µM	
C[C@]12N[C@H](Cc3ccccc31)c1ccccc12 [MK-801, reference compound]		block of NMDA-induced LDH release (in words) [1]: blockable; spectrin breakdown product (SBP) formation, 150 kDa and 145 kDa (in words) [2]: inhibited the SBP formation
CN[C@H](CC(=O)O)C(=O)O [NMDA, N-methyl-D-aspartate, reference compound]		LDH release from the cells ([1]; 500 μM NMDA 30 minutes, additional 4 hours): about 210 unit/mL
